Where a name gives a salt, the structure may show the parent alone.
Columns and labels:
[1] = in vivo; cited from earlier work
pH of salt solutions = type: physicochemical
[2] = stability testing of formulations at 25° C. (content, pH, appearance); type: physicochemical
Protocol: Stability testing of the formulations is done, for example, as described in Remington's Pharmaceutical Sciences. […] A formulation is prepared and placed in suitable container, storing it at 25° C., and periodically observing the appearance of the samples and removing aliquots to be tested for concentration and pH.
At periodic intervals, the appearance of the samples was noted, and aliquots were withdrawn and assayed for active agent concentration and pH.

rat tail vein = rat tail vein injection (irritation / in vivo acceptability)
Protocol: In vivo acceptability is tested by injecting a small amount of the formulation into the tail vein of a rat or other suitable species, for example, as described by Waynforth, Experimental and Surgical Technique in the Rat, Chapter 2, pages 42-45 (Academic Press, 1980).
This procedure is a modification of a procedure described by Waynforth in Experimental and Surgical Technique in the Rat, Chapter 2, pages 42-45 (Academic Press, 1980). The rat tail vein is dilated by warming, and a test formulation administered by injection, using a 25G needle, with the rat held in a restrainer, and a heat source close enough to keep the tail warm during injection. The tail is observed for signs of irritation, which are outwardly apparent and can be detected by the presence of bruising, swelling, lack of flexibility, lumps, or by observation of distress in the animal upon subsequent administration.

[3] = compatibility with infusion fluids; type: physicochemical; conditions: wide range of commercially available infusion fluids
Protocol: Compatibility with infusion fluids is determined by adding a formulation of the invention to an infusion fluid and inspecting the resulting mixture for formation of any precipitate, discoloration, or the appearance of other physical changes, monitoring the solution active ingredient concentration to ensure no loss in potency, which could lead to decreases in efficacy.

[4] = solubility of active agent, its salts and cosolvent solutions; conditions: for solubility (in words): salts of the active agent
[5] = precipitation on dropping the injectable formulation into pH 7.4 phosphate buffer; type: physicochemical; conditions: approx. 1 ml injectable formulation into 50 ml 0.1M pH 7.4 phosphate buffer
calcium channel = conditions: statement in background; cited from earlier work

## Clc1ccccc1CN1CCc2sccc2C1 [ticlopidine]
[1]
  reduction of the risk of a second ischemic event: demonstrated to reduce the risk of a second ischemic event

## Cc1ccc(-c2nc(CN3CCN(C(c4ccccc4)c4ccccc4)CC3)c(C)[nH]2)cc1
pH of salt solutions; when prepared at the desired concentrations
  pH relative to optimum range for physiological compatibility: outside the optimum pH range for physiological compatibility

## Cc1ccc(-c2nc(CN3CCN(C(c4ccccc4)c4ccccc4)CC3)c(C)[nH]2)cc1.O=C(O)C(O)C(O)C(=O)O [tartrate salt, 1-diphenylmethyl-4-[(2-(4-methylphenyl)-5-methyl-1H -imidazol-4-yl)methyl]piperazine tartrate]
[2]; storage at 25° C.
  physical and chemical stability of the solution: at least 12 months
rats
  administration over 28 days: successful administration
baboons
  administration over 28 days: successful administration
Rat tail vein; one week tail vein injection trial
  irritancy levels: Acceptable irritancy levels
physchem
  solubility: > 4000 µg/mL
pH of salt solutions
  pH in solution: greater than 3.0
[3]
  compatibility with infusion fluids: compatible with a wide range of commercially available infusion fluids

## Cc1ccc(-c2nc(C)c(CN3CCN(C(c4ccccc4)c4ccccc4)CC3)[nH]2)cc1 [malonic]
[4]
  solubility (in words): did not have adequate solubility

## Cc1ccc(-c2nc(CN3CCN(C(c4ccccc4)c4ccccc4)CC3)c(C)[nH]2)cc1.Cl.Cl.Cl [1-diphenylmethyl-4-[(2-(4-methylphenyl)-5-methyl-1H-imidazol-4-yl)methyl]piperazine, trihydrochloride]
Rat tail vein; 8 mg/ml solution, pH about 3-3.5, rat tail vein
  signs of pain / irritation upon injection: bruising of the vein, hardening of the tail and other signs of pain upon injection
Rat tail vein; 8 mg/ml solution, pH about 3-3.5 adjusted with sodium hydroxide, shortly after injection
  compound precipitation in rat tail veins: compound precipitation was observed in rat tail veins shortly after injection
[5]
  precipitate at interface: a white precipitate was observed immediately at the interface between the two liquids

## Cc1ccc(-c2nc(CN3CCN(C(c4ccccc4)c4ccccc4)CC3)c(C)[nH]2)cc1 [sulfuric acid salt]
pH of salt solutions
  pH in solution: 1.76

## Cc1ccc(-c2nc(CN3CCN(C(c4ccccc4)c4ccccc4)CC3)c(C)[nH]2)cc1 [ascorbic acid salt]
[2]; solutions of ascorbic acid salt, on standing
  discolouration of solutions upon standing: rapid discolouration upon standing
[4]
  solubility (in words): relatively insoluble

## Cc1ccc(-c2nc(C)c(CN3CCN(C(c4ccccc4)c4ccccc4)CC3)[nH]2)cc1 [oxalic]
[4]
  solubility (in words): did not have adequate solubility

## Cc1ccc(-c2nc(C)c(CN3CCN(C(c4ccccc4)c4ccccc4)CC3)[nH]2)cc1 [aspartic]
[4]; salts investigated for adequate solubility at physiologically acceptable pH and reduced irritancy
  changes in properties of salts: only moderate changes in properties

## Cc1ccc(-c2nc(CN3CCN(C(c4ccccc4)c4ccccc4)CC3)c(C)[nH]2)cc1 [1-Diphenylmethyl-4-[(2-(4-methylphenyl)-5-methyl-1H-imidazol-4-yl)methyl]piperazine]
[4]; particularly at physiological pH, in formulation process and upon administration to test animals
  solubility problems: significant solubility problems
Calcium channel
  calcium channel antagonist: potent calcium channel antagonist
